In PMC4337230 (The journal of physical chemistry. B, 2010):

Target: T1, Lysine 2,3-aminomutase (LAM) (Clostridium subterminale, UniProt Q9XBQ8)
T1 sequence (Q9XBQ8 1-416): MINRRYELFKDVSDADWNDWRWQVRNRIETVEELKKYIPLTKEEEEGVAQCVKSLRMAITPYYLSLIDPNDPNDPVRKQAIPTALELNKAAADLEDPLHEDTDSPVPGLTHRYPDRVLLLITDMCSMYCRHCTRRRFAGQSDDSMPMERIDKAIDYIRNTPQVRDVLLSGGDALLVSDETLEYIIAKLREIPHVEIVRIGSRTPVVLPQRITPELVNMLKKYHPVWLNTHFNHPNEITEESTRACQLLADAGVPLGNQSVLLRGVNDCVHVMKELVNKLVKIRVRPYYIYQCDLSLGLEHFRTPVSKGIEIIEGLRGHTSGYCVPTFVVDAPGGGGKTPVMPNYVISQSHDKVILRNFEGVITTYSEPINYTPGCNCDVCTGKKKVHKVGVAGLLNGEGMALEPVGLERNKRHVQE
Assay: activation of L-alanine […],3-aminomutation, PITC-HPLC
Type: biochemical
Conditions: 200000 µM; activator; 0.2 M L-alanine, 0.16 mM SAM, pH 8.0, 37 °C, anaerobic

## CN [methylamine]
  fold acceleration at 0.2 M: 27 fold
